Reference: patent US10927085B2, “1,2-naphthoquinone based derivative and method of preparing the same” (HUEN Co., Ltd., priority 2013, dated 2021)
Where two headings read alike, the source gives them in different places.

Columns and labels:
[1] = test system: cells; experiment: Measurement of lactate change amount within cells; assay type: cell-based
Procedure: Cells were treated with 400 μl of 6% PCA, and then collected and extracted. Centrifugation (13,000 rpm, 10 min) was performed. A precipitate was dried using a Speed-Vac and then a weight of dried precipitate was measured. A supernatant was neutralized using 400 μl of 1 M KOH and a final volume thereof was adjusted to 1 ml using 0.33 M KH2PO4/K2HPO4, pH 7.5. Centrifugation (13,000 rpm, 10 min) was performed and the amount of lactate in a supernatant was measured (Megazyme, K-LATE).

[2] = biological target: NQO1 protein (Homo sapiens, UniProt P15559); experiment: NQO1 activity measurement (cytochrome C reduction); assay type: biochemical
Procedure: An enzyme reaction solution included 25 mM Tris/HCl (pH 7.4), 0.14% bovine serum albumin, 200 μM NADH, 77 μM cytochrome C, and 5 ng of NQO1 protein. Enzymatic reaction was initiated by adding NADH and performed at 37° C. In this regard, a reaction rate was measured by observing absorbance, which was increased due to reduction of cytochrome C, at 550 nm for 10 minutes and NQO1 activity was represented as an amount of reduced cytochrome C [nmol cytochrome C reduced/min/μg protein].
Extinction coefficient for cytochrome C:21.1 mmol/L/cm=21.1 μmol/ml/cm

[3] = 5 μM, 37° C., absorbance at 550 nm for 10 minutes, 200 μM NADH, 77 μM cytochrome C, 5 ng NQO1 protein

NQO1 protein, sequence (P15559 whole entry, species assumed): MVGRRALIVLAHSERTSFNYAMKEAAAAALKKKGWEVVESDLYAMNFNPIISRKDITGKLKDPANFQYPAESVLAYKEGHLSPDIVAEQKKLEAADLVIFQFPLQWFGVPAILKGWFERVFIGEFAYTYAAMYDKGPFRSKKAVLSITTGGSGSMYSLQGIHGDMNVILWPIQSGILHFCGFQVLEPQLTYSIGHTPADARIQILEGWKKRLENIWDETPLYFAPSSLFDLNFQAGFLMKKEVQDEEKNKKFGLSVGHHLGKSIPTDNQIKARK

| Compound | Lactate change amount within cells (nmol/mg cell) [1] | NQO1 activity (5 μM, [nmol cytochrome C reduced/min/μg protein]) [2, 3] | NQO1 activity (5 μM, [nmol cytochrome C reduced/min/μg protein]) [2] |
| --- | --- | --- | --- |
| CC(C)c1nc2c(o1)-c1cccc(O)c1C(=O)C2=O [Example 15, 6-hydroxy-2-isopropylnaphtho[2,1-d]oxazole-4,5-dione] | 4.1 nmol/mg cell | 20.8 nmol cytochrome C reduced/min/μg protein |  |
| CC(=O)OCc1nc2c(o1)-c1ccccc1C(=O)C2=O [Example 50] | 8.8 nmol/mg cell | 244.3 nmol cytochrome C reduced/min/μg protein |  |
| COc1ccc([N+](=O)[O-])c2c1C(=O)C(=O)c1nc(C(C)(C)C)oc1-2 [Example 22, 2-tert-butyl-6-methoxy-9-nitronaphtho[2,1-d]oxazole-4,5-dione] |  | 102.5 nmol cytochrome C reduced/min/μg protein |  |
| CC(C)c1nc2c(o1)-c1c(N)cccc1C(=O)C2=O [Example 13] |  | 68.6 nmol cytochrome C reduced/min/μg protein |  |
| O=C1C(=O)c2nc(CNc3ccccc3)oc2-c2ccccc21 [Example 48] | 6.9 nmol/mg cell |  | 241.4 nmol cytochrome C reduced/min/μg protein |
| CC(C)c1nc2c(o1)-c1cnccc1C(=O)C2=O [Example 37, 2-isopropyloxazolo[4,5-h]isoquinoline-4,5-dione] | 10.6 nmol/mg cell | 845.7 nmol cytochrome C reduced/min/μg protein |  |
| CC(C)(C)c1nc2c(o1)-c1c(cccc1[N+](=O)[O-])C(=O)C2=O [Example 18] | 13.5 nmol/mg cell | 382.9 nmol cytochrome C reduced/min/μg protein |  |
| O=C1C(=O)c2nc(CNc3ccc(Cl)cc3)oc2-c2ccccc21 [Example 44] | 5.4 nmol/mg cell |  | 239.0 nmol cytochrome C reduced/min/μg protein |
| CC(C)(C)c1nc2c(o1)-c1cccc(O)c1C(=O)C2=O [Example 17, 2-tert-butyl-6-hydroxynaphtho[2,1-d]oxazole-4,5-dione] |  | 7.4 nmol cytochrome C reduced/min/μg protein |  |
| O=C1C(=O)c2nc(-c3ccccc3)oc2-c2ccccc21 [Example 3, 2-phenylnaphtho[2,1-d]oxazole-4,5-dione] | 8.1 nmol/mg cell | 255.5 nmol cytochrome C reduced/min/μg protein |  |
| CN(Cc1nc2c(o1)-c1ccccc1C(=O)C2=O)c1ccc(F)cc1 [Example 47] | 7.6 nmol/mg cell | 227.5 nmol cytochrome C reduced/min/μg protein |  |
| CC(C)C(=O)Nc1ccc2c(c1)C(=O)C(=O)c1oc(C(C)(C)C)nc1-2 [Example 38, N-(2-tert-butyl-4,5-dioxo-4,5-dihydronaphtho[1,2-d]oxazol-7-yl)isobutyramide] | 4.6 nmol/mg cell | 63.4 nmol cytochrome C reduced/min/μg protein |  |
| CC(C)(C)c1nc2c(o1)C(=O)C(=O)c1cc(Cl)ccc1-2 [Example 31, 2-tert-butyl-7-chloronaphtho[1,2-d]oxazole-4,5-dione] | 10.9 nmol/mg cell |  |  |
| Cc1nc2c(o1)C(=O)C(=O)c1ncccc1-2 [Example 34] | 8.9 nmol/mg cell | 923.5 nmol cytochrome C reduced/min/μg protein |  |
| O=C1C(=O)c2nc(CNc3cccc(Cl)c3)oc2-c2ccccc21 [Example 45] | 6.7 nmol/mg cell |  | 229.2 nmol cytochrome C reduced/min/μg protein |
| COc1cccc2c1-c1oc(CN(C)C)nc1C(=O)C2=O [Example 11, 2-((dimethylamino)methyl)-9-methoxynaphtho[2,1-d]oxazole-4,5-dione] | 6.6 nmol/mg cell |  |  |
| O=C1C(=O)c2nc(CN3CCCCC3)oc2-c2ccccc21 [Example 6, 2-(piperidin-1-ylmethyl)naphtho[2,1-d]oxazole-4,5-dione] | 6.7 nmol/mg cell | 171.8 nmol cytochrome C reduced/min/μg protein |  |

| Compound | Lactate change amount within cells (nmol/mg cell) [1] | NQO1 activity (5 μM, [nmol cytochrome C reduced/min/μg protein]) [2, 3] | NQO1 activity (5 μM, [nmol cytochrome C reduced/min/μg protein]) [2] |
| --- | --- | --- | --- |
| CC(C)c1nc2c(o1)-c1c(cccc1[N+](=O)[O-])C(=O)C2=O [Example 12, 2-isopropyl-9-nitronaphtho[2,1-d]oxazole-4,5-dione] | 10.3 nmol/mg cell | 379.2 nmol cytochrome C reduced/min/μg protein |  |
| COc1cccc2c1C(=O)C(=O)c1nc(C(C)C)oc1-2 [Example 10, 2-isopropyl-6-methoxynaphtho[2,1-d]oxazole-4,5-dione] | 11.5 nmol/mg cell | 20.7 nmol cytochrome C reduced/min/μg protein |  |
| COc1ccc(NCc2nc3c(o2)-c2ccccc2C(=O)C3=O)cc1 [Example 46] | 7.4 nmol/mg cell |  | 208.0 nmol cytochrome C reduced/min/μg protein |
| Cc1cc(=O)[nH]c2c1-c1oc(C(C)C)nc1C(=O)C2=O [Example 14, 2-isopropyl-9-methyloxazolo[5,4-f]quinoline-4,5,7(6H)-trione] |  |  | 104.2 nmol cytochrome C reduced/min/μg protein |
| COc1cccc2c1C(=O)C(=O)c1nc(C(C)(C)C)oc1-2 [Example 16, 2-tert-butyl-6-methoxynaphtho[2,1-d]oxazole-4,5-dione] |  | 4.2 nmol cytochrome C reduced/min/μg protein |  |
| Cc1cc(F)ccc1NCc1nc2c(o1)-c1ccccc1C(=O)C2=O [Example 49] | 6.0 nmol/mg cell | 229.6 nmol cytochrome C reduced/min/μg protein |  |
| CC(C)(C)c1nc2c(o1)-c1c(N)cccc1C(=O)C2=O [Example 19] |  | 0.4 nmol cytochrome C reduced/min/μg protein |  |
| CC(C)c1nc2c(o1)C(=O)C(=O)c1ncccc1-2 [Example 33] | 10.2 nmol/mg cell | 458.3 nmol cytochrome C reduced/min/μg protein |  |
| COc1c([N+](=O)[O-])ccc2c1C(=O)C(=O)c1nc(C(C)(C)C)oc1-2 [Example 21, 2-tert-butyl-6-methoxy-7-nitronaphtho[2,1-d]oxazole-4,5-dione] |  | 40.3 nmol cytochrome C reduced/min/μg protein |  |
| CC(C)c1nc2c(o1)-c1cccnc1C(=O)C2=O [Example 20, 2-isopropyloxazolo[5,4-f]quinoline-4,5-dione] | 9.2 nmol/mg cell | 221.0 nmol cytochrome C reduced/min/μg protein |  |
| CC(C)(C)c1nc2c(o1)C(=O)C(=O)c1cccnc1-2 [Example 40] | 8.1 nmol/mg cell | 527.4 nmol cytochrome C reduced/min/μg protein |  |
| O=C1C(=O)c2nc(CNc3ccc(F)cc3)oc2-c2ccccc21 [Example 43] | 4.4 nmol/mg cell |  | 263.0 nmol cytochrome C reduced/min/μg protein |
| CC(C)(C)c1nc2c(o1)-c1c(O)cccc1C(=O)C2=O [Example 25, 2-tert-butyl-9-hydroxynaphtho[2,1-d]oxazole-4,5-dione] |  | 23.5 nmol cytochrome C reduced/min/μg protein |  |
| Cc1cc(=O)n(C)c2c1-c1oc(C(C)C)nc1C(=O)C2=O [Example 7, 2-isopropyl-6,9-dimethyloxazolo[5,4-f]quinoline-4,5,7(6H)-trione] | 8.0 nmol/mg cell |  | 69.8 nmol cytochrome C reduced/min/μg protein |
| CC(C)(C)c1nc2c(o1)-c1c([N+](=O)[O-])ccc(O)c1C(=O)C2=O [Example 23, 2-tert-butyl-6-hydroxy-9-nitronaphtho[2,1-d]oxazole-4,5-dione] |  | 60.9 nmol cytochrome C reduced/min/μg protein |  |
| O=C1C(=O)c2[nH]c(=O)oc2-c2ccccc21 [Example 39] | 7.8 nmol/mg cell | 30.1 nmol cytochrome C reduced/min/μg protein |  |
